# ChEMBL document CHEMBL1138285, “Structure-activity relationships of adenosines with heterocyclic N6-substituents” (Bioorg Med Chem Lett, 2007)
# What was measured:
# [1] = molecular target: Adenosine receptor A2a (Rattus norvegicus) (UniProt P30543); test: Displacement of [3H]ZM-241385 from adenosine A2A receptor expressed in PC12 cell membrane
# Homo sapiens = species on record: Homo sapiens; test: Selectivity for adenosine A1 receptor over adenosine A2A receptor
# [2] = tested on: Adenosine receptor A1 (Mesocricetus auratus); test: Intrinsic activity at adenosine A1 receptor expressed in DDT1 MF2 cells assessed as maximal inhibition of (-)-isoproterenol-stimulated cAMP accumulation
# Adenosine receptor A2a (Rattus norvegicus), sequence (P30543 whole entry, looked up): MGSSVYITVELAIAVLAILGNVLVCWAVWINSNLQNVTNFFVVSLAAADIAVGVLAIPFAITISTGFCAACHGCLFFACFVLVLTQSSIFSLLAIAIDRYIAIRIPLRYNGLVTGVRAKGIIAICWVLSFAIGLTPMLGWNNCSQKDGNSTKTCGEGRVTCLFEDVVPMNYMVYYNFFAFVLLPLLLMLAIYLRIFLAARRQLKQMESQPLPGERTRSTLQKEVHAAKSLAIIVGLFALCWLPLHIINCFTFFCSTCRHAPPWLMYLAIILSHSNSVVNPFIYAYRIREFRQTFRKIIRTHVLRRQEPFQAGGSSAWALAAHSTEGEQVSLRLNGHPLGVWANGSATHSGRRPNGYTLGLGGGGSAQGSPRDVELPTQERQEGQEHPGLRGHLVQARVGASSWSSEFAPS
Ki [1] [µM],Ratio Ki (Homo sapiens),Intrinsic activity [2],Compound
> 100,,,O=C(OCc1ccccc1)N1[C@H]2CC[C@H]1[C@H](Nc1ncnc3c1ncn3[C@@H]1O[C@H](CO)[C@@H](O)[C@H]1O)C2
> 100,,,OC[C@H]1O[C@@H](n2cnc3c(N[C@@H]4CCOC4)ncnc32)[C@H](O)[C@@H]1O [TECADENOSON]
> 100,> 4700,0.99,CC(C)(C)OC(=O)N1CC[C@@H](Nc2ncnc3c2ncn3[C@@H]2O[C@H](CO)[C@@H](O)[C@H]2O)C1
> 100,,0.97,O=C(OCc1ccccc1Br)N1[C@H]2CC[C@H]1[C@H](Nc1ncnc3c1ncn3[C@@H]1O[C@H](CO)[C@@H](O)[C@H]1O)C2

# The next lines start with the compound.
Compound,Ki [1] [µM],Ratio Ki (Homo sapiens),Intrinsic activity [2]
OC[C@H]1O[C@@H](n2cnc3c(N[C@@H]4CCSC4)ncnc32)[C@H](O)[C@@H]1O,9.7,,
OC[C@H]1O[C@@H](n2cnc3c(NC4CC5CCC4N5)ncnc32)[C@H](O)[C@@H]1O (stereo not given in full),7.8,,
CC(=O)N1CC[C@@H](Nc2ncnc3c2ncn3[C@@H]2O[C@H](CO)[C@@H](O)[C@H]2O)C1,> 100,,
OC[C@H]1O[C@@H](n2cnc3c(N[C@@H]4CC[Se]C4)ncnc32)[C@H](O)[C@@H]1O,5.5,,
CC(C)(C)OC(=O)N1[C@H]2CC[C@H]1[C@H](Nc1ncnc3c1ncn3[C@@H]1O[C@H](CO)[C@@H](O)[C@H]1O)C2,34.7,,1.01
O=C(OCc1ccccc1)N1CC[C@@H](Nc2ncnc3c2ncn3[C@@H]2O[C@H](CO)[C@@H](O)[C@H]2O)C1,> 100,,
O=C(OCc1ccccc1Cl)N1[C@H]2CC[C@H]1[C@H](Nc1ncnc3c1ncn3[C@@H]1O[C@H](CO)[C@@H](O)[C@H]1O)C2,> 100,,
